Experimental data from PubChem BioAssay AID248 (DTP/NCI, 2004).
Where “and” joins values, the source holds several entries; their conditions need not be identical. Identical values can stand only once. Inconclusive results and toxic doses are left out. Cut-off read from the data, not from the text of the source: active = T/C of 150% or more; inactive = T/C below 125%.

System: L1210 leukemia ip in BDF1 mice, survival T/C
Assay: NCI In Vivo Anticancer Drug Screen. Data for tumor model L1210 Leukemia (intraperitoneal) in B6D2F1 (BDF1) mice
Settings: endpoint: mean survival time, higher = longer survival
Outline: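 Tumor was transplanted into mice, which were then dosed with test compound or vehicle alone. Survival was recorded for each group, and the treated figure was expressed relative to the control figure.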

[1] = dose: 100.0 mg/kg/injection, schedule: Q04DX002 (ip), vehicle: saline
[2] = dose: 200.0 mg/kg/injection, schedule: Q04DX002 (ip), vehicle: saline
[3] = dose: 400.0 mg/kg/injection, schedule: Q04DX002 (ip), vehicle: saline
[4] = dose: 100.0 mg/kg/injection, schedule: Q01DX001 (ip), vehicle: saline
[5] = dose: 200.0 mg/kg/injection, schedule: Q01DX001 (ip), vehicle: saline
[6] = dose: 400.0 mg/kg/injection, schedule: Q01DX001 (ip), vehicle: saline
[7] = dose: 100.0 mg/kg/injection, schedule: Q04DX003 (ip), vehicle: saline
[8] = dose: 100.0 mg/kg/injection, schedule: Q04DX003 (ip), vehicle: Klucel (hydroxypropylcellulose) (HPC)
[9] = dose: 200.0 mg/kg/injection, schedule: Q04DX003 (ip), vehicle: Klucel (hydroxypropylcellulose) (HPC)
[10] = dose: 400.0 mg/kg/injection, schedule: Q04DX003 (ip), vehicle: Klucel (hydroxypropylcellulose) (HPC)
[11] = dose: 100.0 mg/kg/injection, schedule: Q01DX001 (ip), vehicle: Klucel (hydroxypropylcellulose) (HPC)
[12] = dose: 200.0 mg/kg/injection, schedule: Q01DX001 (ip), vehicle: Klucel (hydroxypropylcellulose) (HPC)
[13] = dose: 400.0 mg/kg/injection, schedule: Q01DX001 (ip), vehicle: Klucel (hydroxypropylcellulose) (HPC)
[14] = dose: 25.0 mg/kg/injection, schedule: Q04DX003 (ip), vehicle: saline
[15] = dose: 50.0 mg/kg/injection, schedule: Q04DX003 (ip), vehicle: saline

Measured: T/C

CN=C(NCCCN1CCOCC1)c1ccc(NC(=O)c2ccc(C(=O)Nc3ccc(C(=NC)NCCCN4CCOCC4)cc3)cc2)cc1
inactive: dose: 12.5 mg/kg/injection, schedule: Q01DX Z (ip), vehicle: water 103 % of control | dose: 25.0 mg/kg/injection, schedule: Q01DX Z (ip), vehicle: water 113 % of control

CC(=O)OCC(C)c1ccccc1 (stereo not drawn)
inactive: [1] 96 % of control | [2] 103 % of control | [3] 96 % of control

CCCCCCc1cccc(C)n1
inactive: [4] 94 % of control | [5] 92 % of control

Nc1ccc(Nc2ccc([N+](=O)[O-])cc2)cc1
inactive: dose: 75.0 mg/kg/injection, schedule: Q01DX009 (ip), vehicle: Klucel (hydroxypropylcellulose) (HPC) 91 % of control | dose: 150.0 mg/kg/injection, schedule: Q01DX009 (ip), vehicle: Klucel (hydroxypropylcellulose) (HPC) 105 % of control | dose: 300.0 mg/kg/injection, schedule: Q01DX009 (ip), vehicle: Klucel (hydroxypropylcellulose) (HPC) 100 % of control

Cn1c(=O)cc(C=Nc2ccc(C(=O)O)cc2)c2ccccc21
inactive: [4] 100 % of control | [5] 96 % of control | [6] 100 % of control

CCCCC(CC)CSCC(CC)CCCC (stereo not drawn)
inactive: dose: 100.0 mg/kg/injection, schedule: Q04DX003 (ip), vehicle: saline sonified 97 % of control | dose: 200.0 mg/kg/injection, schedule: Q04DX003 (ip), vehicle: saline sonified 93 % of control | dose: 400.0 mg/kg/injection, schedule: Q04DX003 (ip), vehicle: saline sonified 97 % of control

O=P(NC(=S)OCCN1CC1)(NC(=S)OCCN1CC1)NC(=S)OCCN1CC1
inactive: dose: 100.0 mg/kg/injection, schedule: Q01DX001 (ip), vehicle: carboxymethylcellulose (CMC) 107 % of control | dose: 200.0 mg/kg/injection, schedule: Q01DX001 (ip), vehicle: carboxymethylcellulose (CMC) 96 % of control

COC1=NS(=O)(=O)C2(O1)c1ccccc1-c1ccccc12
inactive: dose: 100.0 mg/kg/injection, schedule: Q04DX002 (ip), vehicle: Klucel (hydroxypropylcellulose) (HPC) 96 % of control | dose: 200.0 mg/kg/injection, schedule: Q04DX002 (ip), vehicle: Klucel (hydroxypropylcellulose) (HPC) 96 % of control | dose: 400.0 mg/kg/injection, schedule: Q04DX002 (ip), vehicle: Klucel (hydroxypropylcellulose) (HPC) 116 % of control

CC(C)SC=O
inactive: dose: 50.0 mg/kg/injection, schedule: Q01DX009 (ip), vehicle: saline 94 % of control | dose: 100.0 mg/kg/injection, schedule: Q01DX009 (ip), vehicle: saline 93 % of control | [7] 100 % of control | dose: 200.0 mg/kg/injection, schedule: Q01DX009 (ip), vehicle: saline 93 % of control | dose: 200.0 mg/kg/injection, schedule: Q04DX003 (ip), vehicle: saline 105 % of control | dose: 400.0 mg/kg/injection, schedule: Q01DX009 (ip), vehicle: saline 89 % of control | dose: 400.0 mg/kg/injection, schedule: Q04DX003 (ip), vehicle: saline 100 % of control

CC(C)CCCCCOC(N)=O
inactive: dose: 100.0 mg/kg/injection, schedule: Q01DX009 (ip), vehicle: Klucel (hydroxypropylcellulose) (HPC) 96 % of control | dose: 200.0 mg/kg/injection, schedule: Q01DX009 (ip), vehicle: Klucel (hydroxypropylcellulose) (HPC) 103 % of control | dose: 400.0 mg/kg/injection, schedule: Q01DX009 (ip), vehicle: Klucel (hydroxypropylcellulose) (HPC) 102 % of control

CN(C)C(=S)Sc1nc2ccccc2s1
inactive: [8] 101 % of control | [9] 104 % of control | [10] 101 % of control

NC(=O)c1cc(Cl)cc(Cl)c1N
inactive: [11] 100 % of control | [12] 107 % of control | [13] 111 % of control

O=C(O)c1cc(S(=O)(=O)Cl)cc(S(=O)(=O)Cl)c1
inactive: dose: 75.0 mg/kg/injection, schedule: Q01DX001 (ip), vehicle: saline 107 % of control

Cc1cccc(-c2nnc(C(Cl)(Cl)Cl)o2)c1
inactive: [8] 106 % of control | [9] 97 % of control | [10] 97 % of control

CCOc1ccc(-n2c(O)c(N=Nc3ccccc3)c(=O)n(-c3ccccc3)c2=S)cc1
inactive: dose: 50.0 mg/kg/injection, schedule: Q04DX003 (ip), vehicle: acetone 94 % of control | dose: 100.0 mg/kg/injection, schedule: Q04DX003 (ip), vehicle: acetone 89 % of control | dose: 200.0 mg/kg/injection, schedule: Q04DX003 (ip), vehicle: acetone 96 % of control

Nc1ncnc2c1ncn2C1OCC(O)C(O)C1O (stereo not drawn)
inactive: [4] 106 % of control | [5] 98 % of control | [6] 91 % of control

C1CCN(CCC2CCNCC2)CC1
inactive: [14] 97 % of control | [15] 97 % of control | [7] 99 % of control and 100 % of control

Nc1ccc2ncccc2c1[N+](=O)[O-]
inactive: dose: 100.0 mg/kg/injection, schedule: Q01DX001 (ip), vehicle: other 87 % of control | dose: 200.0 mg/kg/injection, schedule: Q01DX001 (ip), vehicle: other 93 % of control

O=C(Nc1ccccc1)OCC(OC(=O)Nc1ccccc1)C(COC(=O)Nc1ccccc1)OC(=O)Nc1ccccc1 (stereo not drawn)
inactive: dose: 25.0 mg/kg/injection, schedule: Q04DX002 (ip), vehicle: saline with Tween-80 100 % of control | dose: 50.0 mg/kg/injection, schedule: Q04DX002 (ip), vehicle: saline with Tween-80 100 % of control | dose: 100.0 mg/kg/injection, schedule: Q04DX002 (ip), vehicle: saline with Tween-80 92 % of control | dose: 400.0 mg/kg/injection, schedule: Q04DX002 (ip), vehicle: saline with Tween-80 88 % of control

CC(Br)CN1CCOCC1 (stereo not drawn)
inactive: [4] 103 % of control

COc1ccc(CC(=O)NNC(=O)C2(C(C)C)OC3(O)CCCCCN3C2=O)cc1OC (stereo not drawn)
inactive: dose: 12.5 mg/kg/injection, schedule: Q04DX003 (ip), vehicle: saline with Tween-80 101 % of control | dose: 25.0 mg/kg/injection, schedule: Q04DX003 (ip), vehicle: saline with Tween-80 92 % of control | dose: 50.0 mg/kg/injection, schedule: Q04DX003 (ip), vehicle: saline with Tween-80 101 % of control | dose: 100.0 mg/kg/injection, schedule: Q04DX003 (ip), vehicle: saline with Tween-80 90 % of control

Cc1ccc(S(=O)(=O)N(C)c2cc(Cl)c(I)cc2Cl)cc1
inactive: [11] 97 % of control | [8] 93 % of control and 94 % of control | [12] 97 % of control | [9] 98 % of control | [13] 94 % of control | [10] 97 % of control and 98 % of control

CCCC(C)OS(=O)(=O)c1ccc([N+](=O)[O-])cc1 (stereo not drawn)
inactive: [1] 101 % of control | [2] 90 % of control | [3] 92 % of control

COc1cc2c(c(OC)c1OC)-c1ccc(O)c(=O)cc1[C@@H](NC(C)=O)CC2
inactive: dose: 75.0 mg/kg/injection, schedule: Q01DX001 (ip), vehicle: other 90 % of control | dose: 150.0 mg/kg/injection, schedule: Q01DX001 (ip), vehicle: other 119 % of control

O=C(Nc1ccc(C2=NCCN2)cc1)c1cccc(C(=O)Nc2ccc(C3=NCCN3)cc2)n1
inactive: dose: 15.0 mg/kg/injection, schedule: Q01DX Z (ip), vehicle: methylcellulose (MC) 96 % of control | dose: 30.0 mg/kg/injection, schedule: Q01DX Z (ip), vehicle: methylcellulose (MC) 93 % of control | dose: 60.0 mg/kg/injection, schedule: Q01DX Z (ip), vehicle: methylcellulose (MC) 104 % of control and 111 % of control | dose: 240.0 mg/kg/injection, schedule: Q01DX Z (ip), vehicle: methylcellulose (MC) 120 % of control | dose: 480.0 mg/kg/injection, schedule: Q01DX Z (ip), vehicle: methylcellulose (MC) 95 % of control

FC(F)(F)c1ccc2c(c1)N(CCCN1CCN(CCCl)CC1)c1ccccc1S2
inactive: dose: 0.78 mg/kg/injection, schedule: Q01DX009 (ip), vehicle: saline 101 % of control | dose: 1.56 mg/kg/injection, schedule: Q01DX009 (ip), vehicle: saline 107 % of control | dose: 3.12 mg/kg/injection, schedule: Q01DX009 (ip), vehicle: saline 107 % of control | dose: 6.25 mg/kg/injection, schedule: Q04DX003 (ip), vehicle: saline 96 % of control | dose: 12.5 mg/kg/injection, schedule: Q01DX009 (ip), vehicle: saline 110 % of control | dose: 12.5 mg/kg/injection, schedule: Q04DX003 (ip), vehicle: saline 97 % of control | [14] 110 % of control | [15] 89 % of control

CCCCCCCCCCCCCCOc1ccc(Sc2ccc([N+](=O)[O-])cc2)cc1
inactive: [11] 106 % of control | [12] 90 % of control | [13] 89 % of control
